This note sets out measurements from patent US5474988A, “5-phenylpyrrolo-1,4-benzoxazine and 5-phenylpyrrolo-1,4-benzothiazine compounds, process and intermediates for their production and pharmaceutical compositions containing them” (Kali-Chemie Pharma GmbH, priority 1993, dated 1995).

For experiment [1], the target named is T1, 5-lipoxygenase (Cavia porcellus, UniProt A0A286X958).
T1 construct: The 5-LO was concentrated in a known manner from PMNs of male Dunkin-Hartley guinea-pigs; endogenous in cells; host or cells: peritoneal PMNs of male Dunkin-Hartley guinea-pigs, homogenized; 10,000 x g supernatant used as enzyme solution
T1 sequence (A0A286X958 1-674): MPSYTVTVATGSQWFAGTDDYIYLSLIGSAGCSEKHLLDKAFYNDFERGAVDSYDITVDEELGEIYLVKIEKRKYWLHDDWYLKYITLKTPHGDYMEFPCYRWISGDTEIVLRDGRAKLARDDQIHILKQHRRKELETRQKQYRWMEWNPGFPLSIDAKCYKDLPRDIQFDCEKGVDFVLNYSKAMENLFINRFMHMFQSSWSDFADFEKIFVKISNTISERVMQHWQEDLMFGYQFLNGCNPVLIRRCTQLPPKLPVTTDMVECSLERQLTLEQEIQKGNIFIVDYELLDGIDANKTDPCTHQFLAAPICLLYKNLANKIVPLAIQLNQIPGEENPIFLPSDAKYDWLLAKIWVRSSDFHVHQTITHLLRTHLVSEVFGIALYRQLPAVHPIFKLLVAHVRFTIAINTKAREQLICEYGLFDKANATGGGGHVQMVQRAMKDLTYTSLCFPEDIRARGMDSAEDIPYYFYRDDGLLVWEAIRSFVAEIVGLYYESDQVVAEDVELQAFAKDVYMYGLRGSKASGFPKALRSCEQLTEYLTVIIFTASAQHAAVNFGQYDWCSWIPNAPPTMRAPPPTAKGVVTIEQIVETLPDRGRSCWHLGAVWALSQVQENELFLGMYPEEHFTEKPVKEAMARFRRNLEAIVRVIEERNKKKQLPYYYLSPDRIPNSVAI
Nature of the experiment: inhibitory activity on free 5-lipoxygenase concentrated from peritoneal PMNs of the guinea-pig (5-HETE formation). In kind it is biochemical. The following applies: 10^-5 mole/liter; guinea-pig 5-LO, 37° C.; read-out: In vitro % inhibitory activity on 5-HETE formation caused by free 5-LO. From the text: 4b. In vitro determination of inhibitory activity on 5-lipoxygenase concentrated from peritoneal PMNs of the guinea-pig.
An inhibition of 5-lipoxygenase can be caused by direct inhibitory action of the substances on the enzyme and/or by interference with the activation of the enzyme. While in test 4a the 5-lipoxygenase inhibition of the substances was investigated in rat PMN cells, in test 4b the inhibitory activity of the substances was investigated on free 5-LO concentrated from guinea-pig PMN cells according to the method of D. Aharony et al., J. Biol. Chem. 261 (1986), 11512-11519 (1986).
The 5-LO was concentrated in a known manner from PMNs of male Dunkin-Hartley guinea-pigs (body weight 400 to 500 g) as follows. 10 ml of a solution containing 27.9 g/l of sodium thioglycolate were injected i.p. into the animals in order to induce the PMN invasion as a result of this inflammatory stimulus. After 22 hours, the animals were sacrificed by lethal ether anaesthesia. 70 ml of HBSS without Ca^++ and Mg^++ ions and containing 0.2% by weight of sodium citrate were then injected into the abdominal cavity. The cell suspension (>80% of the cells are PMNs) was withdrawn from the abdominal cavity, filtered through a cheese-making filter cloth, and washed twice with a 50 mM potassium phosphate buffer solution of pH 7.4, which contained 0.5 mM ethylenediaminetetraacetic acid, 1% by weight of gelatine and 20 μM indomethacin. The cells were resuspended, and the PMN suspension containing 10^8 cells/ml was homogenized three times for 15 seconds each in an ice-bath in a homogenizer of the Labsonic™ type set at high speed. The resulting suspension was centrifuged at 4° C. (15 minutes at 10,000×g). The supernatant liquid was used for the investigation as a solution of the free 5-LO enzyme.
The experiments were carried out at 37° C. for 7 minutes using 0.625 ml samples of this enzyme solution. For the experiments, the enzyme solution (=equivalent of 2.5×10^7 cells), 0.5 mM glutathione, 1 mM ATP and 0.3 mM calcium chloride were added to test tubes. […] of the test substance were added to the samples dissolved in sufficient dimethylformamide such that the dimethylformamide concentration in each test tube is 0.5%. Only dimethylformamide was added to the control samples. After 2 minutes, the formation of 5-(S)-hydroxy-6,8,11,14-eicosatetraenoic acid (=[…]) was initiated by addition 10 μM arachidonic acid. After 5 minutes, the reaction was terminated by addition of 0.625 ml of a mixture of methyl acetate/methanol/0.2 m citric acid 15:2:0.5 v/v/v. 5-HETE was extracted twice using this solvent mixture. The 5-HETE-containing phases were combined and evaporated to dryness under a nitrogen atmosphere. The residue was taken up in a mixture of methanol/water/acetic acid 75:21:0.02 v/v/v having a pH of 5.7, and the solution was investigated for its content of 5-HETE by means of reverse phase HPLC. To accomplish this, a […] silanized silica gel column (Hichrom® ODS2, 250×4.6 mm) was employed as the adsorbent and a mixture of methanol/water/acetic acid 75:21:0.02 adjusted to pH 5.7 with ammonia and having a flow rate of 1 ml/min was used as the eluent. 5-HETE, which was eluted as a single peak after 20 minutes, was identified by comparison with standard solutions eluted at the same time and determined using a UV light detector at a wavelength of 235 nm. Quantitative determination was carried out by comparison of the peak area obtained with peak areas occurring in the calibrated standard solutions. From the 5-HETE contents of the samples determined, the inhibitory activity of the test substances was calculated in % inhibition of 5-HETE synthesis in comparison to the control samples containing no test substance.

Experiment [2] deals with 5-lipoxygenase. Nature of the experiment: inhibition of 5-lipoxygenase activity in polymorphonuclear rat leucocytes (LTB4 formation). In kind it is cell-based. The following applies: 10^-5 mol/l; 22° C. From the text: 4. In vitro determination of 5-lipoxygenase inhibition. 4a. In vitro determination of inhibition of 5-lipoxygenase activity in polymorphonuclear rat leucocytes. Arachidonic acid contained in cell membranes is released after activiation of the polymorphonuclear leucocytes (=PMN). During the course of this, under the action of the enzyme 5-lipoxygenase (=5-LO) arachidonic acid metabolites are synthesized which can be converted to leucotriene B4 (=LTB4) by LTA4 hydrolase. LTB4 is a principal metabolite of the arachidonic acid metabolism taking place on activation of the enzyme 5-LO by the inflammatory stimulus in the cell membrane. In in vitro systems, this metabolite is secreted from PMNs. […] To accomplish this, the content of LTB4 in a culture medium of rat peritoneal PMNs was determined after stimulation by calcimycin (=calcium-ionophore A23187) such as described by […] et al., Can. J. Physiol. Pharmacol. 67 (1989), 17. A cell suspension containing peritoneal PMNs of male Sprague-Dawley rats (body weight 200 to 250 g) was obtained in a known manner as follows: 6 ml of a solution containing 27.9 g/l of sodium thioglycolate were injected i.p. into the animals in order to induce the PMN invasion due to this inflammatory stimulus. After 22 hours, the animals were sacrificed by means of lethal ether anaesthesia. 20 ml of a Hank's salt solution (=Hank's Balanced Salt Solution=HBSS), but without Ca^++ and Mg^++ ions and with 0.2% by weight of sodium citrate, were then injected into the abdominal cavity. The suspension of accumulated cells was removed from the abdominal cavity and the cells were separated by centrifugation (10 minutes at 400×g). The cells were purified by repeated centrifugation in the presence of Ficoll-Paque®, (=metrizoic acid preparation, […], manufacturer Pharmacia), then washed twice with HBSS containing Ca^++ and Mg^++ ions and resuspended in HBSS containing Ca^ ++ and Mg^++ ions and buffered with 10 mM HEPES (=hydroxyethylpiperazinoethanesulfonic acid). In order to carry out the tests, samples of 0.7 ml of the PMN suspension (=0.5×10^6 cells) in each case were incubated for 15 minutes at 22° C. in plastic tubes containing 10 μM of the test substance in dimethylformamide or, as a control experiment, only containing dimethylformamide. The LTB4 synthesis was initiated in the samples by addition of calcimycin (final concentration 5 μm), and the samples were incubated for 10 minutes at 22° C. Only solvent was added to blank control samples. After 10 minutes, the reaction was terminated by addition of 0.3 ml of cold methanol. The samples were kept for 1 hour at 4° C. and then centrifuged (5 minutes at 10,000×g). The supernatant liquid was investigated to determine its LTB4 content by means of reverse phase high-pressure liquid chromatography (=reverse phase HPLC). […] The LTB4 was identified by comparison with authentic standard solutions eluting at the same time and determined at a wavelength of 270 nm. The LTB4 contents are determined from comparison with calibrated standard solutions, and from this the inhibitory activity of the test substances was calculated in % inhibition of the LTB4 synthesis in comparison with the control samples containing no test substance.

Turning to `Cc1ccnc(N2CCN(CCCC3Cn4c(-c5cc(C)c(O)c(C)c5)c(C)c5cccc(c54)O3)CC2)c1` (stereo not shown) [Example 11], on 5-lipoxygenase [1], the inhibition at 10 µM was found to be 95%.
Turning to `Cc1ccnc(N2CCN(CCCC3Cn4c(-c5ccc(O)cc5)c(C)c5cccc(c54)O3)CC2)c1` (stereo not shown) [Example 16], the “In vitro inhibitory activity on LTB4 formation in rat PMNs stimulated by calcium ionophore A23187” value in the experiment with 5-lipoxygenase [2] is reported as 60%. Also, the inhibition at 10 µM at 5-lipoxygenase [1] was determined as 57%.
For `Cc1ccnc(N2CCN(CCC3Cn4c(-c5ccc(O)cc5)c(C)c5cccc(c54)S3)CC2)c1` (stereo not shown) [Example 21], in that order: 42% and 30%.
For `COc1cc(-c2c(C)c3cccc4c3n2CC(CCN2CCN(c3ncccc3C)CC2)O4)ccc1O` (stereo not shown) [Example 35], the “In vitro inhibitory activity on LTB4 formation in rat PMNs stimulated by calcium ionophore A23187” value with 5-lipoxygenase [2] is listed as 79%. In addition, the inhibition at 10 µM at 5-lipoxygenase [1] worked out at 55%.
For the molecule `Cc1c(-c2ccc(O)cc2)n2c3c(cccc13)OC(CCC(=O)N1CCN(c3ccccn3)CC1)C2` (stereo not shown) [Example 36], in the experiment on 5-lipoxygenase [2], the “In vitro inhibitory activity on LTB4 formation in rat PMNs stimulated by calcium ionophore A23187” value amounted to 89%. The inhibition at 10 µM on 5-lipoxygenase [1] amounted to 65%.
On to `COc1cc(-c2c(C)c3cccc4c3n2CC(CCC(=O)N2CCN(c3cc(C)ccn3)CC2)O4)ccc1O` (stereo not shown) [Example 38], for which, in the experiment with 5-lipoxygenase [2], the “In vitro inhibitory activity on LTB4 formation in rat PMNs stimulated by calcium ionophore A23187” value came out at 97%. Besides, on 5-lipoxygenase [1], the inhibition at 10 µM was 100%.
With `Cc1cc(-c2c(C)c3cccc4c3n2CC(CCN2CCC(N(C)c3nccc(=O)[nH]3)CC2)O4)cc(C)c1O` (stereo not shown) [Example 40], the “In vitro inhibitory activity on LTB4 formation in rat PMNs stimulated by calcium ionophore A23187” value with 5-lipoxygenase [2] came to 82%. Further, on 5-lipoxygenase [1], the inhibition at 10 µM was found to be 56%.
For the molecule `Cc1ccnc(N2CCN(C(=O)CCC3Cn4c(-c5ccc(O)c(O)c5)c(C)c5cccc(c54)O3)CC2)c1` (stereo not shown) [Example 49], the “In vitro inhibitory activity on LTB4 formation in rat PMNs stimulated by calcium ionophore A23187” value in the experiment on 5-lipoxygenase [2] is reported as 88%. At 5-lipoxygenase [1], the inhibition at 10 µM was determined as 99%.
On to `Cc1cc(-c2c(C)c3cccc4c3n2CC(CCN2CCN(c3ccccn3)CC2)O4)cc(C)c1O` (stereo not shown) [Example 59], for which the inhibition at 10 µM on 5-lipoxygenase [1] was determined as 70%.
On to `Cc1ccc(N2CCN(CCC3Cn4c(-c5cc(C)c(O)c(C)c5)c(C)c5cccc(c54)O3)CC2)nc1` (stereo not shown) [Example 62], for which the “In vitro inhibitory activity on LTB4 formation in rat PMNs stimulated by calcium ionophore A23187” value with 5-lipoxygenase [2] worked out at 56%. The inhibition at 10 µM at 5-lipoxygenase [1] was determined as 77%.
Turning to `COc1cc(-c2c(C)c3cccc4c3n2CC(CCCCN2CCN(c3cc(C)ccn3)CC2)S4)cc(C)c1O` (stereo not shown) [Example 64], on 5-lipoxygenase [1], the inhibition at 10 µM is 74%.
